Reference: article PMC5762315, “Inhibition of polo-like kinase 4 (PLK4): a new therapeutic option for rhabdoid tumors and pediatric medulloblastoma” (Oncotarget, 2017)
Where “and” joins values, the source holds several entries; their conditions need not be identical. Equal values may be shown once.

Key:
Assay in all cases: biochemical
Type in all cases: biochemical
various kinases [1] = target: various kinases (Homo sapiens, UniProt Q15759); conditions: MAPK11 (p38 beta)
various kinases [2] = target: various kinases (Homo sapiens, UniProt Q9Y463); conditions: DYRK1B
various kinases [3] = target: various kinases (Homo sapiens, UniProt P42684); conditions: ABL2 (Arg)
various kinases [4] = target: various kinases (Homo sapiens, UniProt P08069); conditions: IGF1R
various kinases [5] = target: various kinases (Homo sapiens, UniProt O76039); conditions: CDKL5
various kinases [6] = target: various kinases (Homo sapiens, UniProt P22455); conditions: FGFR4
various kinases [7] = target: various kinases (Homo sapiens, UniProt P24723); conditions: kinase PRKCH (PKC eta); ZLYTE
various kinases [8] = target: various kinases (Homo sapiens, UniProt P29317); conditions: EPHA2
various kinases [9] = target: various kinases (Homo sapiens, UniProt Q9P0L2); conditions: MARK1 (MARK)
various kinases [10] = target: various kinases (Homo sapiens, UniProt O15264); conditions: MAPK13 (p38 delta)
various kinases [11] = target: various kinases (Homo sapiens, UniProt Q9H792); conditions: PEAK1
various kinases [12] = target: various kinases (Homo sapiens, UniProt P06239); conditions: LCK
various kinases [13] = target: various kinases (Homo sapiens, UniProt Q15418); conditions: kinase RPS6KA1 (RSK1); ZLYTE
various kinases [14] = target: various kinases (Homo sapiens, UniProt Q8N752); conditions: CSNK1A1L
various kinases [15] = target: various kinases (Homo sapiens, UniProt Q9P289); conditions: MST4
various kinases [16] = target: various kinases (Homo sapiens, UniProt P04049, Y340D/Y341D); conditions: kinase RAF1 (cRAF) Y340D Y341D; ZLYTE
various kinases [17] = target: various kinases (Homo sapiens, UniProt P45984); conditions: MAPK9 (JNK2)
various kinases [18] = target: various kinases (Homo sapiens, UniProt Q9H0K1); conditions: kinase SNF1LK2; ZLYTE
various kinases [19] = target: various kinases (Homo sapiens, UniProt Q86V86); conditions: PIM3
various kinases [20] = target: various kinases (Homo sapiens, UniProt P78527); conditions: DNA-PK
various kinases [21] = target: various kinases (Homo sapiens, UniProt P08631); conditions: HCK
various kinases [22] = target: various kinases (Homo sapiens, UniProt O75914); conditions: PAK3
various kinases [23] = target: various kinases (Homo sapiens, UniProt P36896); conditions: ACVR1B (ALK4)
various kinases [24] = target: various kinases (Homo sapiens, UniProt P49674, R178C); conditions: CSNK1E (CK1 epsilon) R178C
various kinases [25] = target: various kinases (Homo sapiens, UniProt Q8WTQ7); conditions: GRK7
various kinases [26] = target: various kinases (Homo sapiens, UniProt P32298); conditions: GRK4
various kinases [27] = target: various kinases (Homo sapiens, UniProt P10721); conditions: KIT
various kinases [28] = target: various kinases (Homo sapiens, UniProt P10721, V559D/V654A); conditions: KIT V559D V654A
various kinases [29] = target: various kinases (Homo sapiens, UniProt O00418); conditions: EEF2K
various kinases [30] = target: various kinases (Homo sapiens, UniProt P51813); conditions: BMX
various kinases [31] = target: various kinases (Homo sapiens, UniProt P12931); conditions: kinase SRC; ZLYTE
various kinases [32] = target: various kinases (Homo sapiens, UniProt P42679); conditions: MATK (HYL)
various kinases [33] = target: various kinases (Homo sapiens, UniProt P05129); conditions: kinase PRKCG (PKC gamma); ZLYTE
various kinases [34] = target: various kinases (Homo sapiens, UniProt P00533, L861Q); conditions: EGFR (ErbB1) L861Q
various kinases [35] = target: various kinases (Homo sapiens, UniProt P05771); conditions: kinase PRKCB1 (PKC beta I); ZLYTE
For % Inhibition Average in this document: test concentration or dose not given here.
For % Inhibition Duplicate #1 in this document: test concentration or dose not given here.
For % Inhibition Duplicate #2 in this document: test concentration or dose not given here.

Chain of various kinases (Homo sapiens, UniProt P05771) (P05771 whole entry): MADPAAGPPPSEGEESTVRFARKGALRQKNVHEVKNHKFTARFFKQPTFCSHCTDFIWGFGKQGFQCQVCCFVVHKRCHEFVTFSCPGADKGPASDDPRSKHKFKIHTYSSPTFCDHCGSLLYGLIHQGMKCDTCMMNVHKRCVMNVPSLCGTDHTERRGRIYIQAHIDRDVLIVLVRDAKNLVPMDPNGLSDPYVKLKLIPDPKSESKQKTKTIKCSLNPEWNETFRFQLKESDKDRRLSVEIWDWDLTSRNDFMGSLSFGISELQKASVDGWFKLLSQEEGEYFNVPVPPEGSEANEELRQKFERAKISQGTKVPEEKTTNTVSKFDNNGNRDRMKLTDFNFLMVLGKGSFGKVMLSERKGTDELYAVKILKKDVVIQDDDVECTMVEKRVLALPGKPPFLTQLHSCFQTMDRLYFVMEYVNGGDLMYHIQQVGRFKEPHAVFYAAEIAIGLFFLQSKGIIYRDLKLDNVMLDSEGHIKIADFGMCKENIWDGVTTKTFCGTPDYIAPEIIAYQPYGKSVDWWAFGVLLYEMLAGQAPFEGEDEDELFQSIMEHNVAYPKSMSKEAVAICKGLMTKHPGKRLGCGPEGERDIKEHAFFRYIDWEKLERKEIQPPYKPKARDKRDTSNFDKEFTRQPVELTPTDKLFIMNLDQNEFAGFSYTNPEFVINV
Chain of various kinases (Homo sapiens, UniProt P04049, Y340D/Y341D) (P04049 whole entry Y340D/Y341D): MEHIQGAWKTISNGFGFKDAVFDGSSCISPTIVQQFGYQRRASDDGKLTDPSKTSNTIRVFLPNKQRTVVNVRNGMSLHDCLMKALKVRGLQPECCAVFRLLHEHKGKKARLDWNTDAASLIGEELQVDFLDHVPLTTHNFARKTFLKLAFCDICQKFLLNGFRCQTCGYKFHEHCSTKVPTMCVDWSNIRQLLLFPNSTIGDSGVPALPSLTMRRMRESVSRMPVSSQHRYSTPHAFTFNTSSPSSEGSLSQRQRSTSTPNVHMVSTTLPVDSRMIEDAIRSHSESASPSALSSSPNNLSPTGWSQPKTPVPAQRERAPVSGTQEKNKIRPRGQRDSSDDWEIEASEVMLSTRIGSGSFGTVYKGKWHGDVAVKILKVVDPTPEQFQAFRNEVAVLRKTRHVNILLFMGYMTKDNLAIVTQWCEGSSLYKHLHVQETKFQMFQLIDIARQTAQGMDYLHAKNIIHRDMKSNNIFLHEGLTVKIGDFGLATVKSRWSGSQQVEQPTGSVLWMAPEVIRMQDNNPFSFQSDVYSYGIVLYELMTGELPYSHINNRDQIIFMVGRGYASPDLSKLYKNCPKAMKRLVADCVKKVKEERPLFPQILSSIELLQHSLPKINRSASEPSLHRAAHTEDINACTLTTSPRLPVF
Chain of various kinases (Homo sapiens, UniProt Q15418) (Q15418 whole entry): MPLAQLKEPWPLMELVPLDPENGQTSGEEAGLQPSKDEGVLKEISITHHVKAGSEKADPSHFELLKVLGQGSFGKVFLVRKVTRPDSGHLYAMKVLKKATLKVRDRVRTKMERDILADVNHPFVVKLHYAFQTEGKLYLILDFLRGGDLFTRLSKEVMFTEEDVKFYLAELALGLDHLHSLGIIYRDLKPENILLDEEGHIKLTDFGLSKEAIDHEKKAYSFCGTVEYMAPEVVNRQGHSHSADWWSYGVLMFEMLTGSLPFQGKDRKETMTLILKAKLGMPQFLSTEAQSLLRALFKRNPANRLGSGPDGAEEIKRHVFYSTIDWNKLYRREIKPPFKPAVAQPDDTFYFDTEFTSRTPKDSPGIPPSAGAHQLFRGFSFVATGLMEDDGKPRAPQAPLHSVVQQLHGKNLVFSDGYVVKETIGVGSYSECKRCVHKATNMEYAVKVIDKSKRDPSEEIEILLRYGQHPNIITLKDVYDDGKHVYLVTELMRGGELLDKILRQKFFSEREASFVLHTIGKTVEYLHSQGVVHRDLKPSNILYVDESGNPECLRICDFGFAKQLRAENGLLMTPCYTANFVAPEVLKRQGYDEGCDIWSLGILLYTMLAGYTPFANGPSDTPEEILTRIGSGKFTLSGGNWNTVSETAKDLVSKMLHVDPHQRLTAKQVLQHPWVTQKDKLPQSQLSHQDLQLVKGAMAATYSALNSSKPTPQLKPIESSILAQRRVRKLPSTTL
Chain of various kinases (Homo sapiens, UniProt Q9H0K1) (Q9H0K1 whole entry): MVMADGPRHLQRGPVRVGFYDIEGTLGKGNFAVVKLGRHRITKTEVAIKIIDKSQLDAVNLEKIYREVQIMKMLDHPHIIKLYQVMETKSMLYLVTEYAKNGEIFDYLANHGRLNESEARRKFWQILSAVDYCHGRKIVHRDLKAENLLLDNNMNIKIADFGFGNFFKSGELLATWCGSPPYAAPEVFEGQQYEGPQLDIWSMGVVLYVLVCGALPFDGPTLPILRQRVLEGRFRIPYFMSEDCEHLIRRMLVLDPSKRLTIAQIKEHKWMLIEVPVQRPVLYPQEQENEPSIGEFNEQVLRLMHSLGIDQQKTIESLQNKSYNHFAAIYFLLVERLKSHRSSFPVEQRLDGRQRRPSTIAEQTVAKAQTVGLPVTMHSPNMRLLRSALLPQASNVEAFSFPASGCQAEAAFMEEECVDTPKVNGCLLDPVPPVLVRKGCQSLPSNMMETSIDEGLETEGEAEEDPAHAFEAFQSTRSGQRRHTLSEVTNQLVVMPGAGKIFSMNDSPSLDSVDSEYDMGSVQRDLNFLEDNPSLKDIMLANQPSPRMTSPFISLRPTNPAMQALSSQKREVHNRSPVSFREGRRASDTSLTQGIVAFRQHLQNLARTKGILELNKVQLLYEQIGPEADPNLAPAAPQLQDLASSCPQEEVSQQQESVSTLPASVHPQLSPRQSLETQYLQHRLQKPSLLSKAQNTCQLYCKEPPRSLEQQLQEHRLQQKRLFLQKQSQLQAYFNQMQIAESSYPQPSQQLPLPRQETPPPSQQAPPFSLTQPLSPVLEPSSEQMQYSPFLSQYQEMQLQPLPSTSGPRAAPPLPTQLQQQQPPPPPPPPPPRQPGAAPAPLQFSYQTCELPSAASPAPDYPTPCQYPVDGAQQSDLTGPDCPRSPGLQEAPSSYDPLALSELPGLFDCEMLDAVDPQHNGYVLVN
Chain of various kinases (Homo sapiens, UniProt P24723) (P24723 whole entry): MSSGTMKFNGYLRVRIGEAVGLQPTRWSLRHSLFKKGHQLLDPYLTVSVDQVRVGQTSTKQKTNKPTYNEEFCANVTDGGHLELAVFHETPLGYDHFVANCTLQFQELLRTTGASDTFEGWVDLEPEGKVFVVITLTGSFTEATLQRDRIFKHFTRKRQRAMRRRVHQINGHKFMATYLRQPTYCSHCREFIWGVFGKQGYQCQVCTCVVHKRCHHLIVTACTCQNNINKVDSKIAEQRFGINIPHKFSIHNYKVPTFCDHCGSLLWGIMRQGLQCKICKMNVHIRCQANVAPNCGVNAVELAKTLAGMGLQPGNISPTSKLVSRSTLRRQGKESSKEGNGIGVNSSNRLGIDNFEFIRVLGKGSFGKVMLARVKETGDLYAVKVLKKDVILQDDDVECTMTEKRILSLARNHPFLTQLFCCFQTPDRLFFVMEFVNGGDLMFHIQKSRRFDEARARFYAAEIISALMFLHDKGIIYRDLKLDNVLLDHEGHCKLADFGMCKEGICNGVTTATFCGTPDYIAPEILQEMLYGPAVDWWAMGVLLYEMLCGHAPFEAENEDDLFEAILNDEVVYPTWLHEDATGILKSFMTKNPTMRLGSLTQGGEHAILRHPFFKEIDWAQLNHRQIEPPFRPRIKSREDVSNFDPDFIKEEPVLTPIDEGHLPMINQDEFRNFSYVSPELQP
Chain of various kinases (Homo sapiens, UniProt P12931) (P12931 whole entry): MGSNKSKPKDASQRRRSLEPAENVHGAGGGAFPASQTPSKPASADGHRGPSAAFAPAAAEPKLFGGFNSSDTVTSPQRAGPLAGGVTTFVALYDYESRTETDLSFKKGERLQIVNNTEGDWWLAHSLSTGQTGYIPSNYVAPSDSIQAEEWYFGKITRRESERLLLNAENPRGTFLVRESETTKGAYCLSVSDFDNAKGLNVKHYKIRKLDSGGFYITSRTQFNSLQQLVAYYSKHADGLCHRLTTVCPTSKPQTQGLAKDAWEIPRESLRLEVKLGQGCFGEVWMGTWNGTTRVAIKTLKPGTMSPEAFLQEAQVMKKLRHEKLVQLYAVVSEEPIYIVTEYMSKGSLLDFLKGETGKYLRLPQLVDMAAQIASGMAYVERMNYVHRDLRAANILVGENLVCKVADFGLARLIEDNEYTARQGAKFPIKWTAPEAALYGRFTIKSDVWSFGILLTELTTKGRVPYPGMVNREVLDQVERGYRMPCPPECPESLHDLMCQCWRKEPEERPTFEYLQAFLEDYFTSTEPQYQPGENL

## COc1ccc2c(c1)[C@]1(C[C@H]1c1ccc3c(/C=C/c4ccc(CN5C[C@@H](C)O[C@@H](C)C5)cc4)n[nH]c3c1)C(=O)N2 [CFI-400945]
Various kinases [1]
  % Inhibition: 2% and 5%
Various kinases [2]
  % Inhibition: -1% and -5%
Various kinases [3]
  % Inhibition: 58% and 63%
Various kinases [4]
  % Inhibition: 8%
Various kinases [5]
  % Inhibition: 5%
Various kinases [6]
  % Inhibition: 10% and 16%
Various kinases [7]
  % Inhibition Average: -3%
  % Inhibition Duplicate #1: -10%
  % Inhibition Duplicate #2: 3%
Various kinases [8]
  % Inhibition: 14% and 12%
Various kinases [9]
  % Inhibition: 25% and 24%
Various kinases [10]
  % Inhibition: 1% and 4%
Various kinases [11]
  % Inhibition: 5% and 11%
Various kinases [12]
  % Inhibition: 39% and 40%
Various kinases [13]
  % Inhibition Average: 7%
  % Inhibition Duplicate #1: 7%
  % Inhibition Duplicate #2: 6%
Various kinases [14]
  % Inhibition: 2% and 1%
Various kinases [15]
  % Inhibition: 14% and 10%
Various kinases [16]
  % Inhibition Average: 12%
  % Inhibition Duplicate #1: 10%
  % Inhibition Duplicate #2: 14%
Various kinases [17]
  % Inhibition: 9% and -1%
Various kinases [18]
  % Inhibition Average: 5%
  % Inhibition Duplicate #1: 4%
  % Inhibition Duplicate #2: 5%
Various kinases [19]
  % Inhibition: -1% and 0%
Various kinases [20]
  % Inhibition: 3% and 1%
Various kinases [21]
  % Inhibition: 13% and 11%
Various kinases [22]
  % Inhibition: 11% and 5%
Various kinases [23]
  % Inhibition: -1% and -8%
Various kinases [24]
  % Inhibition: 1%
Various kinases [25]
  % Inhibition: 13% and 12%
Various kinases [26]
  % Inhibition: 1% and -1%
Various kinases [27]
  % Inhibition: 9% and 7%
Various kinases [28]
  % Inhibition: 5% and 6%
Various kinases [29]
  % Inhibition: 2% and 3%
Various kinases [30]
  % Inhibition: 52% and 54%
Various kinases [31]
  % Inhibition Average: 13%
  % Inhibition Duplicate #1: 13%
  % Inhibition Duplicate #2: 13%
Various kinases [32]
  % Inhibition: 6% and 4%
Various kinases [33]
  % Inhibition Average: -5%
  % Inhibition Duplicate #1: -13%
  % Inhibition Duplicate #2: 3%
Various kinases [34]
  % Inhibition: 3% and 0%
Various kinases [35]
  % Inhibition Average: 17%
  % Inhibition Duplicate #1: 18%
  % Inhibition Duplicate #2: 16%
